pIC50: −log10 of the molar value. “Also recorded” adds a separate entry of the source. Like-named read-outs stand apart in the source and are kept apart here.

The results in this text go back to patent publication US20230049350A1, “COMPOUNDS FOR TREATING BRAIN CANCER” (Purdue Pharmaceutical Products L.P., priority 2014, published 2023).

One test deals with U87. Description: s.c. xenograft model of GBM, U87, time to progression. Particulars: for time to progression of the tumours: U87G xenograft. Format: in vivo, mice. On the procedure: Next, adopting the procedure of Example 3, s.c. xenograft models of GBMs in mice were prepared using the GBM cell lines U251 and U87.
The U251 mice prepared as above were subjected either subjected to radiotherapy (2 Gy for 5 consecutive days), treatment with EDO-S101 (60 mg/kg intravenously at days 1, 8 and 15 of the treatment cycle) or control only. Before any irradiation mice were anesthetized with a mixture of ketamine (25 mg/ml)/xylazine (5 mg/ml). Anesthetized tumor-bearing mice received a focal irradiation at the dose of 2 Gy for 5 consecutive days. Irradiation was delivered using an X-ray linear accelerator at a dose rate of 200 cGy/min at room temperature. All mice were shielded with a specially designed lead apparatus to allow irradiation to the right hind limb. Mice were kept under these conditions until all irradiation finished.
The same sequence of experiments was followed, but this time with the s.c. xenograft models of GBM in mice prepared using the GBM cell line U87. In a first experiment, the U87 mice prepared as above were subjected either subjected to radiotherapy (2 Gy for 5 consecutive days), treatment with EDO-S101 (60 mg/kg intravenously at days 1, 8 and 15 of the treatment cycle) or control only. A study was made of the progression of the GBM.

The next test concerns U373MG (Uppsala). Briefly: GBM cell line viability IC50, U373. Type of test: cell-based. Particulars: Homo sapiens, U373 MG. As to the method:
(§1) In vitro experiments were devised in which a series of GBM cell lines representative for MGMT negative and MGMT positive tumour cells were used.
(§2) Compounds: 1-100 µM EDO-S101, 1-50 µM temozolomide (TMZ), 1-50 µM temozolomide + 500 nM vorinostat, 1-40 µM bendamustine, 1-40 µM bendamustine and 500 nM vorinostat.
(§3) Twelve glioblastoma cell lines representing grade III and IV gliomas and with different expression of MGMT, drug and radiotherapy sensitivity and five patient derived glioblastoma stem, cells were used (see above). Four patient-derived glioblastoma stem cells, kindly provided from J. Gregory Cairncross, and Samuel Weiss at the Hotchkiss Brain Institute, Faculty of Medicine, University of Calgary, Calgary, Alberta, Canada and one luciferase transfected, PTC#8, from Prof Angelo Vescovi, University la Bicocca, Milan were cultured in defined culture serum free medium (SFM) and in non-adherent spheres culture. Cells were resuspended in DMEM/F12 media without serum supplemented with 20 ng/ml epidermal growth factor (Sigma-Aldrich), 20 ng/ml basic fibroblast growth factor (Sigma-Aldrich), B-27 supplement 1X (Gibco, Life Technologies), and antibiotics. Treatment with EDO-S101 was added straight after plating 3×10^3 cells in 96-well plates with the stem cells media. Spheres were counted 5 days after treatment under an inverted microscope at ×4 magnification. A sphere was counted if it had at least 15 cells.
(§4) Cells were seeded at a density of 2 × 10^4 cells/ml in 24 well plates. Cells were left to attach and grow in 5% FCS DMEM for 24 h. […] Cells trypsinized and resuspended in 1.0 ml of saline were counted using the NucleoCounterTM NC-100 (automated cell counter systems, Chemotec, Cydevang, DK) in order to evaluate cell viability. […] IC50 values were calculated by the GraFit method (Erithacus Software Limited, Staines, UK). Cell viability was measured with the 3-(4,5 dimethylthiazol-2-yl)-2,5-diphenyl tetrazolium bromide (MTT; Sigma-Aldrich) assay.
(§5) IC50 and IC20 values for all twelve cell lines against bendamustine and vorinostat were also determined as described above. […]

The next test deals with Mz-54. Description: GBM cell line viability IC50, Mz54. Type of test: cell-based. As to the method:
as §1, §2, §3, §4, §5

Another test concerns U87MG. Description: GBM cell line viability IC50, U87. Type of test: cell-based. The conditions noted are these: Homo sapiens, U-87 MG. On the procedure:
as §1, §2, §3, §4, §5

The next test relates to U138MG. Briefly: GBM cell line viability IC50, U138. Type of test: cell-based. The conditions noted are these: Homo sapiens, U138-MG. As to the method: as §1, §2, §3, §4, §5
For the next test, the system named is LN228. Briefly: GBM cell line viability IC50, LN228/LN229. Type of test: cell-based. The conditions noted are these: Homo sapiens, LN-229. On the procedure: as §1, §2, §3, §4, §5
Another test has as its system SNB19. Description: GBM cell line viability IC50, SNB19. Particulars: Homo sapiens, SNB-19. Format: cell-based. As to the method:
as §1, §2, §3, §4, §5

The next test has as its system A172. Description: GBM cell line viability IC50, A172. The conditions noted are these: Homo sapiens, A 172. Format: cell-based. On the procedure:
as §1, §2, §3, §4, §5

The subject of a further test is LN18. Briefly: GBM cell line viability IC50, LN18. Format: cell-based. Particulars: Homo sapiens, LN-18. On the procedure:
as §1, §2, §3, §4, §5

Another test concerns SW1783. Briefly: GBM cell line viability IC50, SW1783. Type of test: cell-based. The conditions noted are these: Homo sapiens. On the procedure: as §1, §2, §3, §4, §5
The subject of the next test is U118MG. Description: GBM cell line viability IC50, U118. Format: cell-based. Particulars: Homo sapiens, U-118-MG. On the procedure: as §1, §2, §3, §4, §5
Where [1] appears, read: drug in combination with radiotherapy 2 Gy x 5 days, EDO-S101 60 mg/kg iv days 1, 8, 15, temozolomide 16 mg/kg po x 5 days.

Regarding `Cn1c(CCCCCCC(=O)NO)nc2cc(N(CCCl)CCCl)ccc21` [EDO-S101], the “time to progression of the tumours” value in the test with U87 (drug alone, 60 mg/kg iv days 1, 8, 15, control approximately 15 days) is recorded as 40 days; in the test on U87 (setting [1]), “over 50 days”. Besides, in the test with U87 (U87 s.c. xenograft, drug alone, FIG. 13, FIG. 14), the “time to progression versus radiotherapy, or versus radiotherapy and temozolomide” value is “considerably longer; also recorded: greater than that achieved with the combined radiotherapy and temozolomide treatment”. The “time to progression versus EDO-S101 alone and versus radiotherapy and temozolomide” value with U87 (U87 s.c. xenograft, drug plus radiotherapy, FIG. 14) is reported as “significantly longer”. Moreover, the pIC50 in the test with U373MG (Uppsala) is 5.65; in the test with Mz-54, 4.90; in the test with U87MG, 5.87; in the test with U138MG, 5.37; in the test with LN228, 5.81; in the test with SNB19 it was 5.66. Further, the pIC50 with A172 is 5.19; with LN18, 5.73; in the test with SW1783 (SW1783) it was 5.08; in the test on U118MG, 5.18.
As for `Cn1c(CCCC(=O)O)nc2cc(N(CCCl)CCCl)ccc21` [bendamustine], the pIC50 is 4.46 in the test on U373MG (Uppsala); 4.22 in the test on Mz-54; 4.30 in the test with U87MG; 4.52 in the test on U138MG; 4.46 in the test on LN228; 4.49 in the test on SNB19. Moreover, the pIC50 was 4.26 in the test with A172, 4.60 in the test with LN18, 4.42 with SW1783 (SW1783) and 4.46 in the test with U118MG.
Regarding `Cn1nnc2c(C(N)=O)ncn2c1=O` [temozolomide], the “time to progression of the tumours” value in the test on U87 (setting [1]) is 35 days. Further, the pIC50 was 4.10 in the test with U373MG (Uppsala) (U373MG (Uppsala), MGMT neg., no unit in Table 2, read-out: IC50); less than 4.00 in the test on Mz-54 (Mz-54, MGMT pos., no unit in Table 2, read-out: IC50); 4.70 in the test with U87MG (MGMT negative U87G glioblastoma cell line, read-out: IC50); less than 4.00 in the test with U138MG (U138MG, MGMT pos., no unit in Table 2, read-out: IC50); less than 4.00 in the test with LN228 (LN228, MGMT neg., no unit in Table 2, read-out: IC50); less than 4.00 with SNB19 (SNB19, MGMT neg., no unit in Table 2, read-out: IC50). Also, the negative-log IC50 (pIC50) in the test on A172 (A172, MGMT neg., no unit in Table 2, read-out: IC50) was approximately 4.00; with LN18 (LN18, MGMT pos., no unit in Table 2, read-out: IC50), less than 4.00; in the test with SW1783 (SW1783, MGMT neg., no unit in Table 2, read-out: IC50), 4.10; in the test on U118MG (U118MG, MGMT pos., no unit in Table 2, read-out: IC50), less than 4.00.

As usually defined, the pIC50 is the negative decadic logarithm of the IC50, by convention in mol/L.
